pIC50: −log10 of the molar value.
Assays:
[1] = tested on: TC32 cells; test: Potency IC50 in TC32 cells and selectivity; type: cell-based; conditions: Homo sapiens, TC-32, Table 2, read-out: IC50 TC32
Method: (§1) Exemplary compounds of the presently-disclosed subject matter were assessed for activity, including clearance, potency, and selectivity. Results from studies are compiled in Tables 2-4.
(§2) Desirable clearance was identified at lower values of mL hr^−1kg^−1 (e.g., about ≤10 mL hr^−1 kg^−1), desirable potency was identified at lower values of IC50 (e.g., about ≤10 nM in TC32 cells), and desired selectivity was identified at higher ratios of IC50 in PC3/IC50 in TC32 (e.g. about >10).

[2] = tested on: PC3; test: IC50 in PC3 cells; type: cell-based; conditions: Homo sapiens, PC-3, read-out: IC50 PC2, Table 2; head prints PC2, text PC3
Method: as §1, §2

[3] = log P; type: physicochemical
[4] = Clearance (CL) / pharmacokinetics; type: in vivo, mice; conditions: Table 2
Method: as §1, §2
Pharmacokinetics of exemplary compounds of the presently-disclosed subject matter were studied in mice following bolus IV dosing. Groups of three mice were administered the compound(s) and blood samples were collected via saphenous bleed. Plasma was separated by centrifugation and extracted to quantitate analytes by LC/MS/MS. Sample analysis followed upon the system meeting system suitability criteria customary for fit for purpose analytical methods. FIG. 1A includes data comparing YL-C09 to mithramycin (MTM) dosed separately. FIG. 1B includes data for YL-B171, YL-C110 and MTM dosed in cassette format.

| pIC50 [1] | pIC50 [2] | logP ([3]; Table 2) | CL [4] | Compound | log P ([3]; Table 2) | log P ([3]; Table 3) |
| --- | --- | --- | --- | --- | --- | --- |
| 7.45 | 6.52 | 1.28 |  | COc1cc2cc(C(=O)NCCON=C([C@@H](O)[C@@H](C)O)[C@@H](OC)[C@@H]3Cc4cc5cc(O[C@H]6C[C@@H](O[C@H]7C[C@@H](O)[C@H](O)[C@@H](C)O7)[C@H](O)[C@@H](C)O6)c(C)c(O)c5c(O)c4C(=O)[C@H]3O[C@H]3C[C@@H](O[C@H]4C[C@@H](O[C@H]5C[C@](C)(O)[C@H](O)[C@@H](C)O5)[C@@H](O)[C@@H](C)O4)[C@H](O)[C@@H](C)O3)[nH]c2cc1OC [YL-B158] |  |  |
| 5.55 | 5.52 | -0.56 |  | CO[C@H](C(=NOCCNC(=O)c1nnc2nc(C)cc(C)n12)[C@@H](O)[C@@H](C)O)[C@@H]1Cc2cc3cc(O[C@H]4C[C@@H](O[C@H]5C[C@@H](O)[C@H](O)[C@@H](C)O5)[C@H](O)[C@@H](C)O4)c(C)c(O)c3c(O)c2C(=O)[C@H]1O[C@H]1C[C@@H](O[C@H]2C[C@@H](O[C@H]3C[C@](C)(O)[C@H](O)[C@@H](C)O3)[C@@H](O)[C@@H](C)O2)[C@H](O)[C@@H](C)O1 [YL-B162] |  |  |
| 8.63 | 7.49 | 1.56 |  | COc1ccc2[nH]c(C(=O)NCCON=C([C@@H](O)[C@@H](C)O)[C@@H](OC)[C@@H]3Cc4cc5cc(O[C@H]6C[C@@H](O[C@H]7C[C@@H](O)[C@H](O)[C@@H](C)O7)[C@H](O)[C@@H](C)O6)c(C)c(O)c5c(O)c4C(=O)[C@H]3O[C@H]3C[C@@H](O[C@H]4C[C@@H](O[C@H]5C[C@](C)(O)[C@H](O)[C@@H](C)O5)[C@@H](O)[C@@H](C)O4)[C@H](O)[C@@H](C)O3)cc2c1 [YL-B166] |  |  |
| 7.82 | 7.32 | 2.83 |  | CO[C@H](C(=NOCCNC(=O)c1cc2cc(Cl)cc(Cl)c2[nH]1)[C@@H](O)[C@@H](C)O)[C@@H]1Cc2cc3cc(O[C@H]4C[C@@H](O[C@H]5C[C@@H](O)[C@H](O)[C@@H](C)O5)[C@H](O)[C@@H](C)O4)c(C)c(O)c3c(O)c2C(=O)[C@H]1O[C@H]1C[C@@H](O[C@H]2C[C@@H](O[C@H]3C[C@](C)(O)[C@H](O)[C@@H](C)O3)[C@@H](O)[C@@H](C)O2)[C@H](O)[C@@H](C)O1 [YL-B167] |  |  |
| 7.16 | 5.99 | 2.1 |  | CO[C@H](C(=NOCCNC(=O)c1cc2cc(-c3cnn(C)c3)ccc2[nH]1)[C@@H](O)[C@@H](C)O)[C@@H]1Cc2cc3cc(O[C@H]4C[C@@H](O[C@H]5C[C@@H](O)[C@H](O)[C@@H](C)O5)[C@H](O)[C@@H](C)O4)c(C)c(O)c3c(O)c2C(=O)[C@H]1O[C@H]1C[C@@H](O[C@H]2C[C@@H](O[C@H]3C[C@](C)(O)[C@H](O)[C@@H](C)O3)[C@@H](O)[C@@H](C)O2)[C@H](O)[C@@H](C)O1 [YL-C20] |  |  |
| 8.19 | 8.09 | 1.87 |  | CO[C@H](C(=NOCc1ccc2scnc2c1)[C@@H](O)[C@@H](C)O)[C@@H]1Cc2cc3cc(O[C@H]4C[C@@H](O[C@H]5C[C@@H](O)[C@H](O)[C@@H](C)O5)[C@H](O)[C@@H](C)O4)c(C)c(O)c3c(O)c2C(=O)[C@H]1O[C@H]1C[C@@H](O[C@H]2C[C@@H](O[C@H]3C[C@](C)(O)[C@H](O)[C@@H](C)O3)[C@@H](O)[C@@H](C)O2)[C@H](O)[C@@H](C)O1 [YL-C52] |  |  |
| 7.19 | 6.67 | 1.12 |  | CO[C@H](C(=NOCCNC(=O)c1ccc2scnc2c1)[C@@H](O)[C@@H](C)O)[C@@H]1Cc2cc3cc(O[C@H]4C[C@@H](O[C@H]5C[C@@H](O)[C@H](O)[C@@H](C)O5)[C@H](O)[C@@H](C)O4)c(C)c(O)c3c(O)c2C(=O)[C@H]1O[C@H]1C[C@@H](O[C@H]2C[C@@H](O[C@H]3C[C@](C)(O)[C@H](O)[C@@H](C)O3)[C@@H](O)[C@@H](C)O2)[C@H](O)[C@@H](C)O1 [YL-C61] |  |  |
|  |  |  | 0.467 mL/min/kg | COc1ccc2[nH]c(C(=O)NCCON=C([C@@H](O)[C@@H](C)O)[C@@H](OC)[C@@H]3Cc4cc5cc(O[C@H]6C[C@@H](O[C@H]7C[C@@H](O)[C@H](O)[C@@H](C)O7)[C@H](O)[C@@H](C)O6)c(C)c(O)c5c(O)c4C(=O)[C@H]3O[C@H]3C[C@@H](O[C@H]4C[C@@H](O[C@H]5C[C@](C)(O)[C@H](O)[C@@H](C)O5)[C@@H](O)[C@@H](C)O4)[C@H](O)[C@@H](C)O3)c(-c3ccc(Cl)cc3)c2c1 [YL-C114] | 3.58 |  |
| 7.65 | 6.77 | 3.06 |  | CO[C@H](C(=NOCCNC(=O)c1[nH]c2ccc(Cl)cc2c1C1CC1)[C@@H](O)[C@@H](C)O)[C@@H]1Cc2cc3cc(O[C@H]4C[C@@H](O[C@H]5C[C@@H](O)[C@H](O)[C@@H](C)O5)[C@H](O)[C@@H](C)O4)c(C)c(O)c3c(O)c2C(=O)[C@H]1O[C@H]1C[C@@H](O[C@H]2C[C@@H](O[C@H]3C[C@](C)(O)[C@H](O)[C@@H](C)O3)[C@@H](O)[C@@H](C)O2)[C@H](O)[C@@H](C)O1 [YL-C124] |  |  |

The remaining lines, values behind:

| Compound | pIC50 [1] | pIC50 [2] | logP ([3]; Table 2) | CL [4] | log P ([3]; Table 2) | log P ([3]; Table 3) |
| --- | --- | --- | --- | --- | --- | --- |
| COC(C(=NOCC(=O)Nc1cccc2cnccc12)C(O)C(C)O)C1Cc2cc3cc(OC4CC(OC5CC(O)C(O)C(C)O5)C(O)C(C)O4)c(C)c(O)c3c(O)c2C(=O)C1OC1CC(OC2CC(OC3CC(C)(O)C(O)C(C)O3)C(O)C(C)O2)C(O)C(C)O1 (stereo not shown) [YL-B160] | 7.06 | 5.95 | 1.3 |  |  |  |
| COC(C(=NOCCNC(=O)c1cc2cc(O)ccc2[nH]1)C(O)C(C)O)C1Cc2cc3cc(OC4CC(OC5CC(O)C(O)C(C)O5)C(O)C(C)O4)c(C)c(O)c3c(O)c2C(=O)C1OC1CC(OC2CC(OC3CC(C)(O)C(O)C(C)O3)C(O)C(C)O2)C(O)C(C)O1 (stereo not shown) [YL-B170] | 7.15 | 6.44 | 1.02 |  |  |  |
| COC(C(=NOCCNC(=O)c1cc2cc(C(F)(F)F)ccc2[nH]1)C(O)C(C)O)C1Cc2cc3cc(OC4CC(OC5CC(O)C(O)C(C)O5)C(O)C(C)O4)c(C)c(O)c3c(O)c2C(=O)C1OC1CC(OC2CC(OC3CC(C)(O)C(O)C(C)O3)C(O)C(C)O2)C(O)C(C)O1 (stereo not shown) [YL-B175] | 8.92 | 8.82 | 2.54 |  |  |  |
| COC(C(=NOCCNC(=O)c1cc2c(=O)n(C)c(=O)n(C)c2[nH]1)C(O)C(C)O)C1Cc2cc3cc(OC4CC(OC5CC(O)C(O)C(C)O5)C(O)C(C)O4)c(C)c(O)c3c(O)c2C(=O)C1OC1CC(OC2CC(OC3CC(C)(O)C(O)C(C)O3)C(O)C(C)O2)C(O)C(C)O1 (stereo not shown) [YL-B179] | 6.17 | 5.52 | -0.02 |  |  |  |
| CO[C@H](C(=NOCC(=O)N[C@@H](Cc1c[nH]c2ccccc12)C(=O)Nc1ccc2scnc2c1)[C@@H](O)[C@@H](C)O)[C@@H]1Cc2cc3cc(O[C@H]4C[C@@H](O[C@H]5C[C@@H](O)[C@H](O)[C@@H](C)O5)[C@H](O)[C@@H](C)O4)c(C)c(O)c3c(O)c2C(=O)[C@H]1O[C@H]1C[C@@H](O[C@H]2C[C@@H](O[C@H]3C[C@](C)(O)[C@H](O)[C@@H](C)O3)[C@@H](O)[C@@H](C)O2)[C@H](O)[C@@H](C)O1 [YL-C39] |  |  |  |  | 2.56 |  |
| CO[C@H](C(=NOC[C@@H](Cc1c[nH]c2ccccc12)NC(=O)c1ccc2scnc2c1)[C@@H](O)[C@@H](C)O)[C@@H]1Cc2cc3cc(O[C@H]4C[C@@H](O[C@H]5C[C@@H](O)[C@H](O)[C@@H](C)O5)[C@H](O)[C@@H](C)O4)c(C)c(O)c3c(O)c2C(=O)[C@H]1O[C@H]1C[C@@H](O[C@H]2C[C@@H](O[C@H]3C[C@](C)(O)[C@H](O)[C@@H](C)O3)[C@@H](O)[C@@H](C)O2)[C@H](O)[C@@H](C)O1 [YL-C53] |  |  |  |  | 3.26 |  |
| COC(C(=NOCC(Cc1c[nH]c2ccccc12)NC(=O)c1cc2cc(Cl)ccc2[nH]1)C(O)C(C)O)C1Cc2cc3cc(OC4CC(OC5CC(O)C(O)C(C)O5)C(O)C(C)O4)c(C)c(O)c3c(O)c2C(=O)C1OC1CC(OC2CC(OC3CC(C)(O)C(O)C(C)O3)C(O)C(C)O2)C(O)C(C)O1 (stereo not shown) [YL-C54] |  |  |  |  | 4.34 |  |
| COC(C(=NOCC(Cc1c[nH]c2ccccc12)NC(=O)c1ccc2scnc2c1)C(O)C(C)O)C1Cc2cc3cc(OC4CC(OC5CC(O)C(O)C(C)O5)C(O)C(C)O4)c(C)c(O)c3c(O)c2C(=O)C1OC1CC(OC2CC(OC3CC(C)(O)C(O)C(C)O3)C(O)C(C)O2)C(O)C(C)O1 (stereo not shown) [YL-C55] |  |  |  |  | 3.26 |  |
| CO[C@H](C(=NOCCNC(=O)c1c(-c2ccc(Cl)cc2)c2cc(Cl)ccc2n1C)[C@@H](O)[C@@H](C)O)[C@@H]1Cc2cc3cc(O[C@H]4C[C@@H](O[C@H]5C[C@@H](O)[C@H](O)[C@@H](C)O5)[C@H](O)[C@@H](C)O4)c(C)c(O)c3c(O)c2C(=O)[C@H]1O[C@H]1C[C@@H](O[C@H]2C[C@@H](O[C@H]3C[C@](C)(O)[C@H](O)[C@@H](C)O3)[C@@H](O)[C@@H](C)O2)[C@H](O)[C@@H](C)O1 [YL-C98] |  |  |  |  | 4.6 |  |
| COC(C(=NOCCNC(=O)c1c(-c2ccc(Cl)cc2)c2cc(Cl)ccc2n1CC(C)C)C(O)C(C)O)C1Cc2cc3cc(OC4CC(OC5CC(O)C(O)C(C)O5)C(O)C(C)O4)c(C)c(O)c3c(O)c2C(=O)C1OC1CC(OC2CC(OC3CC(C)(O)C(O)C(C)O3)C(O)C(C)O2)C(O)C(C)O1 (stereo not shown) [YL-C100] |  |  |  |  | 6.21 |  |
| COC(C(=NOCCNC(=O)c1[nH]c2ccc(Cl)cc2c1-c1ccc(F)c(Cl)c1)C(O)C(C)O)C1Cc2cc3cc(OC4CC(OC5CC(O)C(O)C(C)O5)C(O)C(C)O4)c(C)c(O)c3c(O)c2C(=O)C1OC1CC(OC2CC(OC3CC(C)(O)C(O)C(C)O3)C(O)C(C)O2)C(O)C(C)O1 (stereo not shown) [YL-C116] |  |  |  |  | 4.19 | 4.19 |

— patent US20260297121A1, “MITHRAMYCIN (MTM) 2’ OXIMES” (University of Kentucky Research Foundation, priority 2023, published 2026)
